{
  "source": "paper PMC4832382",
  "about": "“GacA is essential for Group A S treptococcus and defines a new class of monomeric dTDP‐4‐dehydrorhamnose reductases (RmlD)” (Molecular Microbiology, 2015)",
  "key": {"[1]": {"target": "T1, GacA (dTDP-4-dehydrorhamnose reductase, RmlD) (Streptococcus pyogenes, UniProt Q9A0G6)", "T1 construct": "full-length gacA (AAZ51220.1; M5005_Spy_0602), chemically biotinylated", "T1 sequence (Q9A0G6 entry or part of it)": "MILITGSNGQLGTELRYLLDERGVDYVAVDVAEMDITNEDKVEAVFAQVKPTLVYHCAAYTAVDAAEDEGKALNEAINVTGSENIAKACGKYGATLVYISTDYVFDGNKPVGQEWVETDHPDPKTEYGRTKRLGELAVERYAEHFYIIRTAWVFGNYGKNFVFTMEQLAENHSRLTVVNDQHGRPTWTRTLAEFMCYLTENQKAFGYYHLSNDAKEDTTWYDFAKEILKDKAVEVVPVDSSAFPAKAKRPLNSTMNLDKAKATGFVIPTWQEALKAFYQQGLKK", "assay": "SPR (Biacore T200), equilibrium fit, […]°C", "type": "binding"}, "[2]": {"target": "the molecule itself", "assay": "SEC; size-exclusion chromatography of purified wild-type SeRmlD and triple mutant, retention compared with GacA"}},
  "data": [
    {"molecule": "NC(=O)C1=CN([C@@H]2O[C@H](COP(=O)(O)OP(=O)(O)OC[C@H]3O[C@@H](n4cnc5c(N)ncnc54)[C@H](O)[C@@H]3O)[C@@H](O)[C@H]2O)C=CC1", "note": "[NADH]", "values": [
      {"measurement": "Kd", "setting": "[1]", "value": 110, "unit": "µM"}
    ]},
    {"molecule": "NC(=O)C1=CN([C@@H]2O[C@H](COP(=O)(O)OP(=O)(O)OC[C@H]3O[C@@H](n4cnc5c(N)ncnc54)[C@H](OP(=O)(O)O)[C@@H]3O)[C@@H](O)[C@H]2O)C=CC1", "note": "[NADPH]", "values": [
      {"measurement": "Kd", "setting": "[1]", "value": 390, "unit": "µM"}
    ]},
    {"molecule": "RmlD (dTDP-4-dehydrorhamnose reductase) from Salmonella enterica serovar Typhimurium, wild type (enzyme, Salmonella enterica (LT2), UniProt P26392 1-299, looked up, RmlD, Salmonella enterica serovar Typhimurium LT2, full-length rmlD (GI 16420628); also called SeRmlD; wild-type SeRmlD; source: E. coli BL21(DE3), expressed and purified as described for GacA; not shown: His6, N-terminal, cleaved; GST, N-terminal, cleaved) MNILLFGKTGQVGWELQRSLAPVGNLIALDVHSKEFCGDFSNPKGVAETVRKLRPDVIVNAAAHTAVDKAESEPELAQLLNATSVEAIAKAANETGAWVVHYSTDYVFPGTGDIPWQETDATSPLNVYGKTKLAGEKALQDNCPKHLIFRTSWVYAGKGNNFAKTMLRLAKERQTLSVINDQYGAPTGAELLADCTAHAIRVALNKPEVAGLYHLVAGGTTTWHDYAALVFDEARKAGITLALTELNAVPTSAYPTPASRPGNSRLNTEKFQRNFDLILPQWELGVKRMLTEMFTTTTI", "values": [
      {"measurement": "stoichiometry N", "setting": "[2]", "value": 2}
    ]}
  ]
}
